What was measured:
[1] = system: aryl hydrocarbon hydroxylase (AHH) induction in rat hepatoma H-4-II-E cells; settings: Table 1, PCB congeners; cited from earlier work
[2] = system: ethoxyresorufin O-deethylase (EROD) induction in rat hepatoma H-4-II-E cells; settings: Table 1, PCB congeners; cited from earlier work
[3] = molecular target: T1, 2,3,7,8-TCDD hepatic cytosolic receptor protein (Rattus norvegicus, UniProt P41738); experiment: Competitive binding to the rat hepatic cytosolic 2,3,7,8-TCDD receptor protein; settings: for competition with [3H]-2,3,7,8-TCDD for the receptor binding protein: dose-response competition experiments, at high concentrations
T1 sequence (P41738 10-853): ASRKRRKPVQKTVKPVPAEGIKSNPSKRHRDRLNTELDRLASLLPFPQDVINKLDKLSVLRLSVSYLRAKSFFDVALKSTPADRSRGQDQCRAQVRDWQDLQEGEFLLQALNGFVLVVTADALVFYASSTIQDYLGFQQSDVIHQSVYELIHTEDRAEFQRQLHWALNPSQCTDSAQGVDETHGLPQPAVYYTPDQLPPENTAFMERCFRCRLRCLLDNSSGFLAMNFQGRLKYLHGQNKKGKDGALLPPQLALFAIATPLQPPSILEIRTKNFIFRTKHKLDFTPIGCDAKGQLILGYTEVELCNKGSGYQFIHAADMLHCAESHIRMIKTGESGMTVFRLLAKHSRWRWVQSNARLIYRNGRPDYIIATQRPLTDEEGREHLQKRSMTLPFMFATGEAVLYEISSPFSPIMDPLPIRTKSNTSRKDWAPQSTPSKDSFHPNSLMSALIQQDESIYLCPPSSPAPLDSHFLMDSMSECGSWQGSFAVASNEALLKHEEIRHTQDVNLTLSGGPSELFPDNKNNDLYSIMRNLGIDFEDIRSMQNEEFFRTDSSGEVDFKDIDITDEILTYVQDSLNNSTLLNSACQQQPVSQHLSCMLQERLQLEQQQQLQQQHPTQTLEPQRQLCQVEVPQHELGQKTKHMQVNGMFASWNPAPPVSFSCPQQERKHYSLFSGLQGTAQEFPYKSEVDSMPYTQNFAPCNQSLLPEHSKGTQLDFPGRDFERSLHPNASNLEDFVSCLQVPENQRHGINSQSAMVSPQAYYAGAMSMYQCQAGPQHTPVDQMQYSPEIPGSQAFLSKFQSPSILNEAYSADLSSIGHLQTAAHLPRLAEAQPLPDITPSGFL

pullets = settings: eggs from pullets receiving the PCB in their diet at 20 ppm; cited from earlier work
rats = settings: cited from earlier work
[4] = system: hepatic microsomal AHH and EROD; experiment: In vivo induction of rat hepatic microsomal AHH and EROD; settings: 300 umole/kg, immature male Wistar rats (Figure 7)
DMAP N-demethylase = experiment: In vivo induction of rat hepatic microsomal DMAP N-demethylase; settings: 300 umole/kg, immature male Wistar rats (Figure 7)
[5] = injected intraperitoneally on days 1 and 3, 150 umole/kg per injection in corn oil, killed on day 6

SMILES	-log EC50 AHH induction [1]	-log EC50 EROD induction [2]	in vivo induction of microsomal AHH and EROD [4]	in vivo induction of DMAP N-demethylase (DMAP N-demethylase)	also measured
Clc1ccc(-c2cc(Cl)c(Cl)c(Cl)c2)c(Cl)c1 [2',3,4,4',5-Penta]	5.41	5.95			
Clc1cc(Cl)c(-c2cc(Cl)c(Cl)cc2Cl)cc1Cl [2,2',4,4',5,5'-Hexa, 2,2',4,4',5,5'-hexachlorobiphenyl]					competition with [3H]-2,3,7,8-TCDD for the receptor binding protein [3]: some competition
Clc1cc(Cl)c(-c2cc(Cl)c(Cl)c(Cl)c2)cc1Cl [2,3',4,4',5,5'-Hexa]	4.88	5.05			
Clc1ccc(-c2cc(Cl)c(Cl)cc2Cl)cc1Cl [2,3',4,4',5-Penta, 2,3',4,4',5-pentachlorobiphenyl]	4.94	5.05			embryo mortality (pullets): 100%; thymic atrophy (rats): thymic atrophy
Clc1cc(-c2ccc(Cl)c(Cl)c2Cl)cc(Cl)c1Cl [2,3,3',4,4',5'-Hexa, 2,3,3',4,4',5'-hexachlorobiphenyl]	6.15	5.90			thymic atrophy (rats): thymic atrophy
Clc1ccc(-c2cc(Cl)c(Cl)c(Cl)c2Cl)cc1Cl [2,3,3',4,4',5-Hexa, 2,3,3',4,4',5-hexachlorobiphenyl]	5.68	6.05			thymic atrophy (rats): thymic atrophy
Clc1ccc(-c2ccc(Cl)c(Cl)c2Cl)cc1Cl [2,3,3',4,4'-Penta, 2,3,3',4,4'-Pentachlorobiphenyl]	7.06	6.92			thymic atrophy (rats): thymic atrophy
Clc1ccc(-c2cc(Cl)c(Cl)c(Cl)c2Cl)cc1 [2,3,4,4',5-Penta, 2,3,4,4',5-Pentachlorobiphenyl]	6.02	6.25	significantly induced both	inducers	
Clc1ccc(-c2ccc(Cl)c(Cl)c2Cl)cc1 [2,3,4,4'-Tetra]	4.96	5.72			
Clc1cc(-c2ccccc2)c(Cl)c(Cl)c1Cl [2,3,4,5-Tetra, 2,3,4,5-tetrachlorobiphenyl]					competition with [3H]-2,3,7,8-TCDD for the receptor binding protein [3]: some competition; in vivo induction of the cytochrome P-450-dependent monooxygenases (AHH, EROD, DMAP N-demethylase) [4]: do not induce any
Clc1ccc(-c2cc(Cl)c(Cl)c(Cl)c2)cc1Cl [3,3',4,4'5-Penta, 3,3',4,4',5-pentachlorobiphenyl]	9.62	9.61			
Clc1ccc(-c2ccc(Cl)c(Cl)c2)cc1Cl [3,3',4,4'-Tetra, 3,3',4,4'-tetrachlorobiphenyl]	7.55	7.05			
FC(F)(F)c1ccc(-c2ccc(C(F)(F)F)c(C(F)(F)F)c2)cc1 [3,4,4'-tritrifluoromethylbiphenyl]					competitive binding affinity for the receptor protein ([3]; displacement of [3H]-2,3,7,8-TCDD): unexpectedly low
Cc1ccc2cc3c(ccc4ccccc43)c3c2c1CC3 [3-MC, 3-methylcholanthrene, reference compound]	5.89	6.20			
Clc1cc(-c2ccc(-c3ccccc3)cc2)c(Cl)c(Cl)c1Cl [C6H5, 4'-Phenyl-2,3,4,5-tetrachlorobiphenyl]			significantly induced both		
CC(C)(C)c1ccc(-c2cc(Cl)c(Cl)c(Cl)c2Cl)cc1 [C(CH3)3, 4'-tert-butyl-2,3,4,5-tetrachlorobiphenyl]			significantly induced both	inactive	
O=[N+]([O-])c1ccc(-c2cc(Cl)c(Cl)c(Cl)c2Cl)cc1 [NO2, 4'-Nitro-2,3,4,5-tetrachlorobiphenyl]			significantly induced both	inducers	
Clc1cc2c(cc1Cl)Oc1cc(Cl)c(Cl)cc1O2 [TCDD, 2,3,7,8-tetrachlorodibenzo-p-dioxin, reference compound]	10.02	10.10			
Clc1cc(-c2ccc(Br)cc2)c(Cl)c(Cl)c1Cl [X = Br, 4'-Bromo-2,3,4,5-tetrachlorobiphenyl]			significantly induced both	inducers	
FC(F)(F)c1ccc(-c2cc(Cl)c(Cl)c(Cl)c2Cl)cc1 [X = CF3, 4'-Trifluoromethyl-2,3,4,5-tetrachlorobiphenyl]			significantly induced both	inactive	
Cc1ccc(-c2cc(Cl)c(Cl)c(Cl)c2Cl)cc1 [X = CH3, 4'-Methyl-2,3,4,5-tetrachlorobiphenyl]					in vivo induction of the cytochrome P-450-dependent monooxygenases (AHH, EROD, DMAP N-demethylase) [4]: do not induce any
N#Cc1ccc(-c2cc(Cl)c(Cl)c(Cl)c2Cl)cc1 [X = CN, 4'-Cyano-2,3,4,5-tetrachlorobiphenyl]			significantly induced both	inducers	
CC(=O)c1ccc(-c2cc(Cl)c(Cl)c(Cl)c2Cl)cc1 [X = COCH3, 4'-Acetyl-2,3,4,5-tetrachlorobiphenyl]					in vivo induction of the cytochrome P-450-dependent monooxygenases (AHH, EROD, DMAP N-demethylase) [4]: do not induce any
Fc1ccc(-c2cc(Cl)c(Cl)c(Cl)c2Cl)cc1 [X = F, 4'-Fluoro-2,3,4,5-tetrachlorobiphenyl]			significantly induced both	inducers	
Oc1ccc(-c2cc(Cl)c(Cl)c(Cl)c2Cl)cc1 [X = OH, 4'-Hydroxy-2,3,4,5-tetrachlorobiphenyl]					in vivo induction of the cytochrome P-450-dependent monooxygenases (AHH, EROD, DMAP N-demethylase) [4]: do not induce any
CC(C)c1ccc(-c2cc(Cl)c(Cl)c(Cl)c2Cl)cc1 [X = i-C3H7, 4'-Isopropyl-2,3,4,5-tetrachlorobiphenyl]			significantly induced both	inactive	Residue levels in rat liver [5]: 1-4 ppm
Clc1cc(-c2ccc(I)cc2)c(Cl)c(Cl)c1Cl [X= I, 4'-Iodo-2,3,4,5-tetrachlorobiphenyl]				inactive	
